Reference: article PMC12384620, “Hit-to-Lead Studies of Pyrazinylpiperazines against Visceral Leishmaniasis: Pharmacokinetic Profile and In Vivo Efficacy of Potent Compounds against Leishmania infantum” (ACS Pharmacology & Translational Science, 2025)

Tests used:
[1] = Metabolic stability in mouse liver microsomes; assay type: in vitro ADME; details: pH 7.4, MLM, with NADPH cofactor; for microsomal CLint at 5 μM: read-out: Clint, intrinsic clearance; for half-life at 5 μM: read-out: t1/2, microsomal half-life
Method: To a microcentrifuge tube was added 1 mg/mL Mouse Liver Microsome (MLM), a NADPH generating system consisting of 1 mM NADP+, 1.5 mM MgCl2, 3.5 mM glucose-6-phosphate and 0.5 U/mL glucose-6-phosphate dehydrogenase, and phosphate buffer (pH 7.4) in a sufficient amount for a total volume of […]. After a 15 min preincubation at 37 °C in a water bath, the enzymatic reactions were started by adding 2 μL of a […] stock solution of each compound to be assessed, reaching a final concentration of 5 μM in the tested compound. , The samples were further incubated at 37 °C under stirring (30 rpm) for predetermined periods (0, 15, 30, 45, and 60 min), and 500 μL chilled MeOH and 500 μL chilled acetonitrile were added before the samples were homogenized and left standing in an ice bath to accelerate protein precipitation. The resulting mixture was centrifugated at 13000 rpm for 15 min at 4 °C, the organic layer was extracted and 2 μL internal standard (clonazepam 5 μM) was added. Finally, the samples were filtered through a PVDF filter (Millex 0.22 μm x 13 mm) and analyzed by HPLC-PDA. ,

[2] = tested on: L. infantum GSK-3A; test: GSK-3A enzyme inhibition (LANCE TR-FRET); assay type: biochemical; details: concentrations up to 30 μM, 50 nM enzyme
Method: The following controls were included: protein in 1% DMSO (100% activity), 10 μM AZD-5438 (0% activity), and buffer without enzyme (blank).
To detect the progress of the enzymatic reaction, a commercially available TR-FRET-based assay (LANCE TR-FRET, PerkinElmer) was used. In the enzymatic step, purified protein kinase and the peptide substrate were incubated with compounds 1 – 6 for 30 min at 25 °C before the addition of ATP to start the reaction, which was run at 30 °C (2 h for GSK-3A or 1 h 15 min for GSK-3B). […]. […]
The fluorescence signal was measured using a CLARIOstar microplate reader (BMG LABTECH) set with an excitation wavelength of 320 nm and an emission wavelength of 665 nm. MARS software (BMG LABTECH) was used to analyze the data obtained after reading each plate. The background fluorescence signal (blank) was subtracted from the fluorescence signal obtained for each reaction, in order to reflect the specific signal of enzymatic activity. The data was then analyzed with the GraphPad Prism v10 software, using the equation “log(inhibitor) vs response - variable slope (four parameters) - Y = Bottom + (Top-Bottom)/(1 + 10̂((LogIC50-X)* HillSlope))” to obtain dose–response curves and determine IC50 values. […]

[3] = tested on: L. infantum::tdTomato intracellular amastigotes; test: Synergism between 2 and Sb^III against intracellular L. infantum amastigotes; assay type: cell-based, Leishmania infantum
Method: Cells derived from the human monocytic strain THP-1 were cultured in complete Rowell Park Memorial Institute (RPMI)-1640 medium (supplemented with 10% fetal bovine serum, 100 U/mL penicillin, and 100 μg/mL streptomycin). Monocytes were differentiated into macrophages by the addition of 20 ng/mL phorbol myristate acetate (PMA). After 72 h, the macrophages (5 × 10^4), in black 96-well microtiter plates (Corning Incorporated, Corning, NY), were infected with Leishmania (Leishmania) infantum (MHOM/BR/1974/PP75) promastigotes expressing red fluorescence protein on the second day of the stationary phase (20 parasites per macrophage) for 4 h. […] To investigate the possibility of synergism between Sb^III and compound 2, […] different concentrations of these drugs were used (1.0, 0.5, 0.2, 0.1, and 0.05 μg/mL), the solutions of Sb^III and 2 being prepared and diluted the day of the assay. The compounds were tested separately and in combination. […] The EC50 values were determined by nonlinear regression using a Variable slope model (log(concentration) vs growth inhibition) with the GraphPadPrism v8.2.0 (CA, USA) software. By normalizing the data as a fractional response, it was possible to perform the calculation using a Bayesian model. The results were compared to each other to determine whether the combination of compounds has a synergistic, antagonistic or additive effect. Controls with uninfected cells, untreated infected cells, infected cells treated with amphotericin B at 0.25 μM (positive control) or DMSO 1% were used. Quadruplicates were run on the same plate, and the experiments were repeated at least once.

[4] = PAMPA blood-brain barrier permeability; assay type: in vitro ADME; details: PAMPA-BBB, pH 7.4; read-out: BBB Pe
Method: One mg of each compound was solubilized in ethanol (1 mL) in a 5 mL flask, and an additional 500 μL ethanol and 3.5 mL PBS buffer (pH 7.4) were added to this solution. […] 180 μL of a PBS (pH 7.4)/ethanol (70:30) solution were then added to the wells of a 96-well receiver plate, and 5 μL of a porcine brain lipid solution (20 mg/mL in dodecane) to the wells of a 96-well donor plate. […] Afterward, the donor plate was removed, and the content of the receiver plate was transferred to a UV reading plate, which was read using a microplate reader (SpectraMax 5 – Molecular Devices). A reference sample for the internal correction of the microplate reader was prepared using 180 μL of the PBS (pH 7.4)/ethanol (70:30) solution (adapted from ref ). The optical density values obtained from the content of the receiver plate were compared with the ones obtained from readings performed with the initial solutions containing each compound, before their addition to the donor plate. […] The optical density values for the experimental controls were used to determine the equation of the linear regression (optical density vs P e ), which allowed the determination of the P e value of each compound from the optical density values obtained from the receiver plate, using an in-house Microsoft Excel spreadsheet.

[5] = tested on: L. infantum promastigotes; test: Flow cytometric cell cycle analysis (PI); assay type: cell-based, Leishmania infantum; details: 24 h, 0.5x, 1x, 2x IC50, PI
Method: Then, the cells were collected, washed twice with 1 × PBS, and fixed in 70% ethanol at 4 °C for 24 h. The fixed parasites were then washed with 1 × PBS and the pellet was treated with 500 μL of RNase A (20 mg/mL) and incubated at 37 °C for 1 h. Subsequently, the parasites were stained with 10 μg/mL propidium iodide (PI) in the dark for 20 min. Cell cycle distribution, determining the percentage of cells in G0, G1, S, and G2/M phases, was analyzed using an Accuri C5 BD flow cytometer. The histograms presented are representative of results obtained from three independent experiments.

Row | SMILES | microsomal CLint at 5 μM [1] | half-life at 5 μM [1] | inhibition of L. infantum GSK-3A [2] | IC50 ([3]; Leishmania infantum, 72 h, read-out: IC50 against intracellular amastigotes of L. infantum) | effect of the combination of 2 and Sb^III (Bayesian model) ([3]; combination of 2 with Sb^III, in vitro against L. infantum) | Papp at 0.2 mg/mL [4] | effect on cell cycle progression [5]
1 | O=C(c1ccc(O)cc1)N1CCN(c2cnccn2)CC1 [Compound 2, (4-Hydroxyphenyl)(4-(pyrazin-2-yl)piperazin-1-yl)methanone] | 0.55 µL/min/mg | 5.25 h | no inhibitory effect | 3.1 ± 1.3 µM | antagonistic | 0.55 ×10⁻⁶ cm/s | G0/G1 phase cell cycle arrest
2 | O=C(c1ccc(O)c(Cl)c1)N1CCN(c2cnccn2)CC1 [Compound 1, (3-Chloro-4-hydroxyphenyl)(4-(pyrazin-2-yl)piperazin-1-yl)methanone] | 1.23 µL/min/mg | 2.36 h | did not exert any inhibition |  |  | 0.52 ×10⁻⁶ cm/s | 
